Test results as given in the supplement of paper PMC10307832.

What was measured:
Assay in all cases: relative viability (nuclei count vs DMSO), 5 days (fraction); higher = more cells survive
[1] = system: SK-MES-1
How it was run: (§1)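 Relative viability was taken as the ratio of nuclei in treated wells to nuclei in vehicle wells. Lung cancer cell lines in 1536-well plates received compounds by pin tool one day after seeding, either one drug alone or a fixed anchor-drug dose plus five library-drug doses (not always all listed) in √10 steps. Nuclei were counted on 4× images after 5 days of treatment, and values are medians of duplicate plates.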

[2] = system: NCI-H1563
How it was run: as §1

[3] = system: PC-3 [JPC-3]
How it was run: as §1

[4] = system: NCI-H520
How it was run: as §1

[5] = system: NCI-H23
How it was run: as §1

[6] = system: NCI-H1755
How it was run: as §1

[7] = system: NCI-H1792
How it was run: as §1

[8] = system: LK-2
How it was run: as §1

[9] = system: NCI-H2170
How it was run: as §1

[10] = system: NCI-H1666
How it was run: as §1

[11] = system: NCI-H1944
How it was run: as §1

[12] = system: NCI-H596
How it was run: as §1

[13] = system: NCI-H1975
How it was run: as §1

[14] = system: EMC-BAC-2
How it was run: as §1

[15] = system: EKVX
How it was run: as §1

[16] = system: HCC-366
How it was run: as §1

[17] = system: A-427
How it was run: as §1

[18] = system: H3255
How it was run: as §1

[19] = system: NCI-H1734
How it was run: as §1

[20] = system: COR-L 105
How it was run: as §1

[21] = system: NCI-H441
How it was run: as §1

[22] = system: LOU-NH91
How it was run: as §1

COc1cc(N2CCC(C(N)=O)CC2)ccc1Nc1nc(N)c(Cl)c(Nc2ccccc2S(=O)(=O)C(C)C)n1 [HG-5-88-01] + Cc1nc(NC(=O)N2CCC[C@H]2C(N)=O)sc1-c1ccnc(C(C)(C)C(F)(F)F)c1 [Alpelisib] (partner 2 µM)
relative viability ([1]; first compound 0.04 µM): 0.925
relative viability ([1]; first compound 0.1265 µM): 0.582
relative viability ([1]; first compound 0.4 µM): 1.07
relative viability ([1]; first compound 1.265 µM): 0.941
relative viability ([1]; first compound 4 µM): 0.86
relative viability ([2]; first compound 0.04 µM): 1.05
relative viability ([2]; first compound 0.1265 µM): 0.877
relative viability ([2]; first compound 0.4 µM): 0.909
relative viability ([2]; first compound 1.265 µM): 0.844
relative viability ([2]; first compound 4 µM): 0.993
relative viability ([3]; first compound 0.04 µM): 0.965
relative viability ([3]; first compound 0.1265 µM): 1.04
relative viability ([3]; first compound 0.4 µM): 1
relative viability ([3]; first compound 1.265 µM): 0.971
relative viability ([3]; first compound 4 µM): 0.825
relative viability ([4]; first compound 0.04 µM): 0.85
relative viability ([4]; first compound 0.1265 µM): 0.94
relative viability ([4]; first compound 0.4 µM): 0.884
relative viability ([4]; first compound 1.265 µM): 1.01
relative viability ([4]; first compound 4 µM): 1.03
relative viability ([5]; first compound 0.04 µM): 0.832
relative viability ([5]; first compound 0.1265 µM): 0.738
relative viability ([5]; first compound 0.4 µM): 0.67
relative viability ([5]; first compound 1.265 µM): 0.847
relative viability ([5]; first compound 4 µM): 0.496
relative viability ([6]; first compound 0.1265 µM): 0.938
relative viability ([6]; first compound 0.4 µM): 0.912
relative viability ([6]; first compound 1.265 µM): 0.897
relative viability ([6]; first compound 4 µM): 1.05
relative viability ([7]; first compound 0.04 µM): 0.874
relative viability ([7]; first compound 0.1265 µM): 0.686
relative viability ([7]; first compound 0.4 µM): 0.654
relative viability ([7]; first compound 1.265 µM): 0.635
relative viability ([7]; first compound 4 µM): 0.949
relative viability ([8]; first compound 0.04 µM): 1.16
relative viability ([8]; first compound 0.1265 µM): 1.23
relative viability ([8]; first compound 0.4 µM): 0.975
relative viability ([8]; first compound 1.265 µM): 0.632
relative viability ([8]; first compound 4 µM): 1.8
relative viability ([9]; first compound 0.04 µM): 0.761
relative viability ([9]; first compound 0.1265 µM): 0.833
relative viability ([9]; first compound 0.4 µM): 0.795
relative viability ([9]; first compound 1.265 µM): 0.46
relative viability ([9]; first compound 4 µM): 0.803
relative viability ([10]; first compound 0.04 µM): 1
relative viability ([10]; first compound 0.1265 µM): 1.02
relative viability ([10]; first compound 0.4 µM): 0.816
relative viability ([10]; first compound 1.265 µM): 0.706
relative viability ([10]; first compound 4 µM): 0.657
relative viability ([11]; first compound 0.04 µM): 0.801
relative viability ([11]; first compound 0.1265 µM): 0.833
relative viability ([11]; first compound 0.4 µM): 1.01
relative viability ([11]; first compound 1.265 µM): 0.71
relative viability ([11]; first compound 4 µM): 0.844
relative viability ([12]; first compound 0.04 µM): 0.529
relative viability ([12]; first compound 0.1265 µM): 0.477
relative viability ([12]; first compound 0.4 µM): 0.587
relative viability ([12]; first compound 1.265 µM): 0.362
relative viability ([12]; first compound 4 µM): 0.493
relative viability ([13]; first compound 0.04 µM): 0.597
relative viability ([13]; first compound 0.1265 µM): 0.62
relative viability ([13]; first compound 0.4 µM): 0.555
relative viability ([13]; first compound 1.265 µM): 0.516
relative viability ([13]; first compound 4 µM): 0.264
relative viability ([14]; first compound 0.04 µM): 0.729
relative viability ([14]; first compound 0.1265 µM): 0.757
relative viability ([14]; first compound 0.4 µM): 0.723
relative viability ([14]; first compound 1.265 µM): 0.703
relative viability ([14]; first compound 4 µM): 0.628
relative viability ([15]; first compound 0.04 µM): 0.888
relative viability ([15]; first compound 0.1265 µM): 0.914
relative viability ([15]; first compound 0.4 µM): 0.823
relative viability ([15]; first compound 4 µM): 0.814
relative viability ([16]; first compound 0.04 µM): 0.49
relative viability ([16]; first compound 0.1265 µM): 0.382
relative viability ([16]; first compound 0.4 µM): 0.309
relative viability ([16]; first compound 1.265 µM): 0.418
relative viability ([16]; first compound 4 µM): 0.327
relative viability ([17]; first compound 0.04 µM): 1.07
relative viability ([17]; first compound 0.1265 µM): 1.12
relative viability ([17]; first compound 0.4 µM): 1.16
relative viability ([17]; first compound 1.265 µM): 1.12
relative viability ([17]; first compound 4 µM): 0.959
relative viability ([18]; first compound 0.04 µM): 0.714
relative viability ([18]; first compound 0.1265 µM): 0.63
relative viability ([18]; first compound 0.4 µM): 0.645
relative viability ([18]; first compound 4 µM): 0.422
relative viability ([19]; first compound 0.04 µM): 0.633
relative viability ([19]; first compound 0.1265 µM): 0.657
relative viability ([19]; first compound 0.4 µM): 0.727
relative viability ([19]; first compound 1.265 µM): 0.713
relative viability ([19]; first compound 4 µM): 0.799
relative viability ([20]; first compound 0.04 µM): 0.955
relative viability ([20]; first compound 0.1265 µM): 1.1
relative viability ([20]; first compound 0.4 µM): 0.971
relative viability ([20]; first compound 1.265 µM): 0.606
relative viability ([20]; first compound 4 µM): 0.711
relative viability ([21]; first compound 0.04 µM): 0.752
relative viability ([21]; first compound 0.1265 µM): 0.77
relative viability ([21]; first compound 0.4 µM): 0.845
relative viability ([21]; first compound 1.265 µM): 0.84
relative viability ([21]; first compound 4 µM): 0.893
relative viability ([22]; first compound 0.04 µM): 0.713
relative viability ([22]; first compound 0.1265 µM): 0.67
relative viability ([22]; first compound 0.4 µM): 0.659
relative viability ([22]; first compound 1.265 µM): 0.545
relative viability ([22]; first compound 4 µM): 0.528
